# Reference: patent US20230065079A1, “FATTY ACID DERIVATIVE LABELED WITH POSITRON-EMITTING RADIONUCLIDE” (ASTELLAS PHARMA INC., priority 2020, published 2023)
# Assay: PET test using normal cynomolgus monkey (heart contrast PET, SUV in myocardium and bone ROI)
# Assay type: in vivo
# Conditions: for SUV (bone) 20 minutes / SUV (bone) 60 minutes / SUV (bone) 120 minutes / SUV (bone) 180 minutes / SUV (myocardium) 20 minutes / SUV (myocardium) 60 minutes / SUV (myocardium) 120 minutes / SUV (myocardium) 180 minutes: male normal cynomolgus monkey, about 300 MBq i.v.; for SUV (bone) 20 minutes / SUV (bone) 60 minutes / SUV (bone) 120 minutes / SUV (bone) 180 minutes: ROI bone (near the spine), n.d. = target organ cannot be confirmed in the image and ROI cannot be set; for SUV (bone) 20 minutes / SUV (myocardium) 20 minutes: 0 to 20 minutes after administration; for SUV (bone) 60 minutes / SUV (myocardium) 60 minutes: 20-minute section ending 60 minutes after administration; for SUV (bone) 120 minutes / SUV (myocardium) 120 minutes: 20-minute section ending 120 minutes after administration; for SUV (bone) 180 minutes / SUV (myocardium) 180 minutes: 160 to 180 minutes after administration; for SUV (myocardium) 20 minutes / SUV (myocardium) 60 minutes / SUV (myocardium) 120 minutes / SUV (myocardium) 180 minutes: ROI myocardium, Examples 1 case, Reference Example 15 average ± standard error of 3 cases
# Description: Solutions containing each compound prepared in Examples 1 to 7 and Reference Example 15 ([^18F]FTO) were used to perform a heart contrast PET test using normal cynomolgus monkeys.
# For performing non-invasive PET imaging, in a state in which a male cynomolgus monkey was anesthetized with inhalation anesthetic isoflurane, the monkey was held at a supine body position on a PET camera SHR17000 (manufactured by Hamamatsu Photonics K.K.), the solution containing each compound (about 300 MBq) was administered from the lower extremity vein, and continuous imaging was performed for 180 minutes or more after the administration. The PET images were reconstructed by dynamic row-action maximum likelihood algorithm (DRAMA) and average images per each time section which is divided every 20 minutes from 0 minutes to 180 minutes after the administration, are obtained. Then, the region of interest (ROI) was set in the myocardium region or bone (near the spine), and the accumulation (standardized uptake value (SUV)) of each compound was calculated as {radioactivity count in the ROI (MBq/cc)/[dose (MBq)/body weight (g)]}.
# The SUV values quantified by setting the ROI for the myocardium and the bone of each compound are shown in Tables 10 and 11 as SUV (myocardium) and SUV (bone). […] A case where the target organ cannot be confirmed in the image and the ROI cannot be set is denoted as n.d. The time in the Tables represents an end point of each time section, for example, “20 minutes” represents the SUV value from 0 minutes to 20 minutes after, and “180 minutes” represents the SUV value from 160 minutes to 180 minutes after the administration. In addition, Maximum Intensity Projection (MIP) PET images 60 minutes and 180 minutes after the administration of the compounds of Reference Example 15 ([…]) and Example 6 are shown in FIGS. 1A to 1D.
SUV (bone) 20 minutes,SUV (bone) 60 minutes,SUV (bone) 120 minutes,SUV (bone) 180 minutes,SUV (myocardium) 20 minutes,SUV (myocardium) 60 minutes,SUV (myocardium) 120 minutes,SUV (myocardium) 180 minutes,"non-specific accumulation to the bone (PET, normal cynomolgus monkey, result in words)",SMILES
1.42 ± 0.10,2.27 ± 0.13,3.82 ± 0.60,5.05 ± 0.99,6.45 ± 0.59,6.54 ± 0.51,5.90 ± 0.58,5.21 ± 0.59,,"O=C(O)CCSCCCC/C=C\CCCCCCCC[18F] [Reference Example 15, 3-{[(5Z)-14-[^18F]fluorotetradec-5-en-1-yl]sulfanyl}propanoic acid, reference compound]"
1.57,1.13,1.27,1.51,6.65,5.44,4.38,3.92,,"CCCCCCCCCCCC([18F])CCSCCC(=O)O (stereo not shown) [Example 4, 3-[(3-[^18F]fluorotetradecyl)sulfanyl]propanoic acid]"
0.87,0.69,0.75,0.79,4.87,4.13,3.21,2.80,,"CC/C=C\C/C=C\C/C=C\CC([18F])CCSCCC(=O)O (stereo not shown) [Example 1, 3-{[(5Z,8Z,11Z)-3-[lSF]fluorotetradeca-5,8,11-trien-1-yl]sulfanyl}propanoic acid]"
2.12,2.00,2.07,2.08,5.75,3.20,2.80,2.41,,"CCCCC/C=C\C/C=C\CC([18F])CCSCCC(=O)O (stereo not shown) [Example 3, 3-{[(5Z,8Z)-3-[^18F]fluorotetradeca-5,8-dien-1-yl]sulfanyl}propanoic acid]"
,,,,7.74,6.24,4.80,3.98,not detected at all,"CCCCCCCCC1CC1CC([18F])CCSCCC(=O)O (stereo not shown) [Example 6, 3-{[3-[^18F]fluoro-4-(2-octylcyclopropyl)butyl]sulfanyl}propanoic acid]"
1.87,3.41,5.11,6.36,11.6,11.4,10.0,8.44,,"CCCCCCCCC([18F])CCSCCCCC(=O)O (stereo not shown) [Example 7, 5-[(3-[^18F]fluoroundecyl)sulfanyl]pentanoic acid]"
1.40,1.05,1.34,1.14,7.40,7.53,6.74,5.92,,"CCCCCCCCCC([18F])CCSCCC(=O)O (stereo not shown) [Example 2, 3-[(3-[^18F]fluorododecyl)sulfanyl]propanoic acid]"
1.45,1.36,1.28,1.40,6.84,6.13,5.16,5.09,,"CCCCCCCC/C=C/CC([18F])CCSCCC(=O)O (stereo not shown) [Example 5, 3-{[(5E)-3-[^18F]fluorotetradec-5-en-1-yl]sulfanyl}propanoic acid]"
